# Reference: patent publication US12612380B2, “Non-lysosomal glucosylceramidase inhibitors and uses thereof” (ALECTOS THERAPEUTICS INC., priority 2019, dated 2026)
# pIC50: −log10 of the molar value. Read-outs that look alike come from different tables or passages of the source.
# Assays:
# GBA2 [1] = biological target: T1, GBA2 (Homo sapiens, UniProt Q9HCG7); assay: Determination of IC50 values for inhibition of GBA2 in cell lysate; assay type: biochemical; set-up: host or cells: HEK293T (lentiviral transduction, puromycin selection); used as cellular homogenate
# T1 sequence (Q9HCG7 1-927): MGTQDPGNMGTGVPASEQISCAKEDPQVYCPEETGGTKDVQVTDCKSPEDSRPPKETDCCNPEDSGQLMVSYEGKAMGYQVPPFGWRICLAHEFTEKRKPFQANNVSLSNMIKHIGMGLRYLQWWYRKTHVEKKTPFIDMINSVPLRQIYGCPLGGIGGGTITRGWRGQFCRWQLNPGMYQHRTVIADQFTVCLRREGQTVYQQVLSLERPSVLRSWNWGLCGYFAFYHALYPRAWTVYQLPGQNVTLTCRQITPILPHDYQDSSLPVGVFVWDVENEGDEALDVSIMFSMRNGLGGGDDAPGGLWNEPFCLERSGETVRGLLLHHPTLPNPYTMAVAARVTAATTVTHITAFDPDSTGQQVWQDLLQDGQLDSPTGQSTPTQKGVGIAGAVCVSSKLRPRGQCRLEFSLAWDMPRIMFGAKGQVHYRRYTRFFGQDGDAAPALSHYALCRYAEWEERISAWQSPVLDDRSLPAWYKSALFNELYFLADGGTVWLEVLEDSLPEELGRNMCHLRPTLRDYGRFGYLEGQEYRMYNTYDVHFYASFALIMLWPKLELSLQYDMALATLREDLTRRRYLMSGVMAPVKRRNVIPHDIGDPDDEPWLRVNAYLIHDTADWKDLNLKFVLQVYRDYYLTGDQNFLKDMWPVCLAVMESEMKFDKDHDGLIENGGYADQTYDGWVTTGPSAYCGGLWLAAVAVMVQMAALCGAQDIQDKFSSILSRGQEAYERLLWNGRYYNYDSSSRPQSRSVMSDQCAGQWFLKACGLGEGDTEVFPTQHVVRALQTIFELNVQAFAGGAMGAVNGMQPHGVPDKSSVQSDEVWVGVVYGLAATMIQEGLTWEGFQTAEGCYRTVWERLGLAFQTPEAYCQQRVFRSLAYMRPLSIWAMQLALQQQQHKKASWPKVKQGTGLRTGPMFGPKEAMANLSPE
# In short: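 Homogenate of HEK293T cells stably overexpressing human GBA2 (0.083 mg/mL final), pretreated with 20 μM GCase inhibitor, preincubated 5 min at 37 °C with compound, then reacted 20 min with 250 μM 4-methylumbelliferyl-β-D-glucopyranoside at pH 5.5 (citrate-phosphate, 1% C10E6). Fluorescence read at 365/450 nm after alkaline stop; IC50 from log-inhibitor curve fit.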
# GBA2 [2] = biological target: T1, GBA2; assay: Binding specificity (selectivity) for GBA2 over other enzymes; assay type: biochemical; conditions: compared to a suitable reference compound, e.g. NB-DNJ (miglustat) or AMP-DNM
# Text: In some embodiments, one or more of the compounds according to the invention may specifically bind a GBA2. In alternative embodiments, one or more of the compounds according to the invention may specifically bind the active site of a GBA2. […] In alternative embodiments, one or more of the compounds according to the invention may specifically bind the human non-lysosomal glucosylceramidase (GBA2) over the human lysosomal glucosylceramidase (GCase) and/or the human cytosolic glucosylceramidase (GBA3). In alternative embodiments, one or more of the compounds according to the invention may specifically bind the human non-lysosomal glucosylceramidase (GBA2) over the human glucosylceramide synthase (GCS). In alternative embodiments, one or more of the compounds according to the invention may specifically bind the human non-lysosomal glucosylceramidase (GBA2) over an intestinal alpha-glucosidase, where the intestinal alpha-glucosidase may be a sucrase-isomaltase or a maltase-glucoamylase.
# [3] = cellular homogenate of HEK293T cells overexpressing human GBA2, 250 μM 4-methylumbelliferone-β-D glucopyranoside, pH 5.5, 37° C., GCase inhibitor present, read-out: GBA2 IC50
Compound,pIC50 (GBA2 [1]),binding specificity (IC50 or Ki of other molecule / GBA2) (GBA2 [2]),pIC50 (GBA2 [1]; [3])
"CCCCOc1cc(F)c(CCN2C[C@H](O)[C@@H](O)[C@H](O)[C@H]2C)c(F)c1 [Example 59, (2R,3R,4R,5S)-1-(4-butoxy-2,6-difluorophenethyl)-2-methylpiperidine-3,4,5-triol]",> 7.00,enhanced binding specificity,–
"C[C@@H]1[C@@H](O)[C@H](O)[C@@H](O)CN1CCc1c(F)cc(OCC2CC2)cc1F [Example 60, (2R,3R,4R,5S)-1-(4-(cyclopropylmethoxy)-2,6-difluorophenethyl)-2-methylpiperidine-3,4,5-triol]",> 7.00,enhanced binding specificity,–
"C[C@@H]1[C@@H](O)[C@H](O)[C@@H](O)CN1CCc1cc2c(cc1F)OCO2 [Example 71, (2R,3R,4R,5S)-1-(2-(6-fluorobenzo[d][1,3]dioxol-5-yl)ethyl)-2-methylpiperidine-3,4,5-triol]",> 7.00,enhanced binding specificity,–
"C[C@@H]1[C@@H](O)[C@H](O)[C@@H](O)CN1CCc1ccc2c(c1)OCCO2 [Example 73, (2R,3R,4R,5S)-1-(2-(2,3-dihydrobenzo[b][1,4]dioxin-6-yl)ethyl)-2-methylpiperidine-3,4,5-triol]",> 7.00,enhanced binding specificity,–
"Cc1ccccc1N1CC[C@H](CN2C[C@H](O)[C@@H](O)[C@H](O)[C@H]2C)C1 [Example 114, (2R,3R,4R,5S)-2-methyl-1-(((R)-1-(o-tolyl)pyrrolidin-3-yl)methyl)piperidine-3,4,5-triol]",–,enhanced binding specificity,> 7.00
"C[C@@H]1[C@@H](O)[C@H](O)[C@@H](O)CN1C[C@H]1CCN(c2ccccc2C(F)(F)F)C1 [Example 115, (2R,3R,4R,5S)-2-methyl-1-(((R)-1-(2-(trifluoromethyl)phenyl)pyrrolidin-3-yl)methyl)piperidine-3,4,5-triol]",–,enhanced binding specificity,> 7.00
"C[C@@H]1[C@@H](O)[C@H](O)[C@@H](O)CN1C[C@H]1CCN(c2ccccc2F)C1 [Example 116, (2R,3R,4R,5S)-1-(((R)-1-(2-fluorophenyl)pyrrolidin-3-yl)methyl)-2-methylpiperidine-3,4,5-triol]",–,enhanced binding specificity,> 7.00
"C[C@@H]1[C@@H](O)[C@H](O)[C@@H](O)CN1C[C@H]1CCN(c2cccc(F)c2)C1 [Example 117, (2R,3R,4R,5S)-1-(((R)-1-(3-fluorophenyl)pyrrolidin-3-yl)methyl)-2-methylpiperidine-3,4,5-triol]",–,enhanced binding specificity,> 7.00
"C[C@@H]1[C@@H](O)[C@H](O)[C@@H](O)CN1C[C@H]1CCN(c2ccccc2OC(F)(F)F)C1 [Example 118, (2R,3R,4R,5S)-2-methyl-1-(((R)-1-(2-(trifluoromethoxy)phenyl)pyrrolidin-3-yl)methyl)piperidine-3,4,5-triol]",–,enhanced binding specificity,> 7.00
"C[C@@H]1[C@@H](O)[C@H](O)[C@@H](O)CN1C[C@H]1CCN(c2cccc(C(F)(F)F)n2)C1 [Example 119, (2R,3R,4R,5S)-2-methyl-1-(((R)-1-(6-(trifluoromethyl)pyridin-2-yl)pyrrolidin-3-yl)methyl)piperidine-3,4,5-triol]",–,enhanced binding specificity,> 7.00
"C[C@@H]1[C@@H](O)[C@H](O)[C@@H](O)CN1C[C@H]1CCN(c2ncccc2C(F)(F)F)C1 [Example 120, (2R,3R,4R,5S)-2-methyl-1-(((R)-1-(3-(trifluoromethyl)pyridin-2-yl)pyrrolidin-3-yl)methyl)piperidine-3,4,5-triol]",–,enhanced binding specificity,> 7.00
